In patent US10758534B2 (Vertex Pharmaceuticals Incorporated, priority 2014, dated 2020):
Like-named read-outs stand apart in the source and are kept apart here.

Target: T1, F508del (Homo sapiens, UniProt P13569, DEL508-508)
T1 construct: expressed in transfected cells
Test: Protocol 2: FRET membrane potential optical assay (VIPR), identification of correction compounds
Format: cell-based
Method in brief: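 NIH3T3 mouse fibroblasts stably expressing F508del-CFTR incubated with compound 16 h at 37 °C in serum-free medium, then loaded with CC2-DMPE/DiSBAC2(3) FRET dyes. Channel activated with 10 μM forskolin plus 20 μM genistein in Cl⁻-free (gluconate) bath; depolarisation from Cl⁻ efflux read on VIPR II.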

[1] = Table 3, compounds of Table 1 as modulators of CFTR activity, protocol not stated
[2] = F508del CFTR modulator activity, compounds of Table 1, read-out: EC30

T1 sequence (P13569 with tags, fused parts or gaps DEL508-508): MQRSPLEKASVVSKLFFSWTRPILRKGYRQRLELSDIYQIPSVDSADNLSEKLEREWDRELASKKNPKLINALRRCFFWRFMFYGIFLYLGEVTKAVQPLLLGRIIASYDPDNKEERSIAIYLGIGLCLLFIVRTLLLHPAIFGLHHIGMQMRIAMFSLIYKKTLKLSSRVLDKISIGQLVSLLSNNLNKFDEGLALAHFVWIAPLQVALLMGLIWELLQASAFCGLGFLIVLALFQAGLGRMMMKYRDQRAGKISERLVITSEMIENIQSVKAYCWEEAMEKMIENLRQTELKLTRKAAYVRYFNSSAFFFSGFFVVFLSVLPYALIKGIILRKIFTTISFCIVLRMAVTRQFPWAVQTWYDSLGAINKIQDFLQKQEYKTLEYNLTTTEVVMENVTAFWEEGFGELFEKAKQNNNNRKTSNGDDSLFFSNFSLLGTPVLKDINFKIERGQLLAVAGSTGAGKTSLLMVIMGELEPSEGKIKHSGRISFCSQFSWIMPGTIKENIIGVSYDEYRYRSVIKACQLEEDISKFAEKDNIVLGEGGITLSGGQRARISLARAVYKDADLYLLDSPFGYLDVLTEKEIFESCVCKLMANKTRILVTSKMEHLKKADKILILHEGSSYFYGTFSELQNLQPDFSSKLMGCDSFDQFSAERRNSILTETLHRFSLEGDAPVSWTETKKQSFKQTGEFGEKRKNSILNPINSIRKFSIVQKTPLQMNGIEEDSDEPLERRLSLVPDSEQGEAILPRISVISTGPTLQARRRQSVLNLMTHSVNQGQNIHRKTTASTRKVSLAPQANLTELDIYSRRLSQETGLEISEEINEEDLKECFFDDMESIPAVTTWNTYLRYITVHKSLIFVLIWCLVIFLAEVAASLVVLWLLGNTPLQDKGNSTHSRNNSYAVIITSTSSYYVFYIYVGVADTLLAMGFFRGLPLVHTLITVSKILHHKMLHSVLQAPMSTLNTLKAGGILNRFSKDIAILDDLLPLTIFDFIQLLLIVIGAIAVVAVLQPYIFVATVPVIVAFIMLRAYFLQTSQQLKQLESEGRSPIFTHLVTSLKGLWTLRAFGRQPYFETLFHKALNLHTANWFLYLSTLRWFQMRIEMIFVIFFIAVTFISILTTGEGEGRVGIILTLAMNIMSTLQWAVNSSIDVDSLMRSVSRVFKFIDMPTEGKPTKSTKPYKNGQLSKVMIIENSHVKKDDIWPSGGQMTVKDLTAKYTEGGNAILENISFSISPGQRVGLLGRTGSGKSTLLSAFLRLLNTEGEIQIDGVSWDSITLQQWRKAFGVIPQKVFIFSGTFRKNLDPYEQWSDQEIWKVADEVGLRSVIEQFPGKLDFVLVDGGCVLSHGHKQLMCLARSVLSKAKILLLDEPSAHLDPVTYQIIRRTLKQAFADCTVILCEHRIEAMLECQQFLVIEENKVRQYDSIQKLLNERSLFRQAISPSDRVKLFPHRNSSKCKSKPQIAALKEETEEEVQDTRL

Row | SMILES | EC30 [1] | EC30 [2] [nM] | also measured
1 | CC1CN(c2ncccc2C(=O)NS(=O)(=O)c2cccc(OCc3ccc(F)cc3)n2)C(C)(C)C1 (centres unmarked) [Compound 2524, N—[[6-[(4-fluorophenyl)methoxy]-2-pyridyl]sulfonyl]-2-(2,2,4-trimethylpyrrolidin-1-yl)pyridine-3-carboxamide] | – | < 3000 | –
2 | CC1CN(c2ncccc2C(=O)NS(=O)(=O)c2cccc(O[C@H](C)Cc3ccccc3)n2)C(C)(C)C1 (stereo partly drawn) [Compound 2470, N—[[6-[(1R)-1-methyl-2-phenyl-ethoxy]-2-pyridyl]sulfonyl]-2-(2,2,4-trimethylpyrrolidin-1-yl)pyridine-3-carboxamide] | – | < 3000 | –
3 | CC(C)COc1cc(F)cc(-c2ccc(C(=O)NS(=O)(=O)c3cccc(N)n3)c(N3C(C)CC(c4ccccc4)C3C)n2)c1 (centres unmarked) [Compound 711, N-[(6-amino-2-pyridyl)sulfonyl]-2-(2,5-dimethyl-3-phenyl-pyrrolidin-1-yl)-6-(3-fluoro-5-isobutoxy-phenyl)pyridine-3-carboxamide] | +++ (“+++” means <3 uM) | – | –
4 | C[C@@H]1CN(c2nc(-c3cccc4[nH]ccc34)ccc2C(=O)NS(=O)(=O)c2ccc[nH]c2=O)C(C)(C)C1 [Compound 2636, 6-(1H-indol-4-yl)-N-[(2-oxo-1H-pyridin-3-yl)sulfonyl]-2-[(4S)-2,2,4-trimethylpyrrolidin-1-yl]pyridine-3-carboxamide] | – | > 10000 | –
5 | CC1CN(c2ncccc2C(=O)NS(=O)(=O)c2cccc(N3CC[C@@H](NC(=O)OC(C)(C)C)C3)n2)C(C)(C)C1 (stereo partly drawn) [Compound 2537, tert-butyl N-[(3R)-1-[6-[[2-(2,2,4-trimethylpyrrolidin-1-yl)pyridine-3-carbonyl]sulfamoyl]-2-pyridyl]pyrrolidin-3-yl]carbamate] | – | 3000 to 10000 | –
6 | CC(C)COc1cc(F)cc(-c2ccc(C(=O)NS(=O)(=O)c3ccn[nH]3)c(N3CCC4(CC3)OCc3ccccc34)n2)c1 [Compound 506, 6-(3-fluoro-5-isobutoxy-phenyl)-N-(1H-pyrazol-5-ylsulfonyl)-2-spiro[1H-isobenzofuran-3,4′-piperidine]-1′-yl-pyridine-3-carboxamide] | +++ (“+++” means <3 uM) | – | –
7 | CC1CN(c2nc(-c3ccc(F)cc3)ccc2C(=O)NS(=O)(=O)c2cccc(N)n2)C(C)(C)C1 (centres unmarked) [Compound 712, N-[(6-amino-2-pyridyl)sulfonyl]-6-(4-fluorophenyl)-2-(2,2,4-trimethylpyrrolidin-1-yl)pyridine-3-carboxamide] | +++ (“+++” means <3 uM) | – | –
8 | CC1CN(c2ncccc2C(=O)NS(=O)(=O)c2cccc(N3CCN(c4cnccn4)CC3)n2)C(C)(C)C1 (centres unmarked) [Compound 2254, N—[[6-(4-pyrazin-2-ylpiperazin-1-yl)-2-pyridyl]sulfonyl]-2-(2,2,4-trimethylpyrrolidin-1-yl)pyridine-3-carboxamide] | – | 3000 to 10000 | –
9 | CC(C)COc1cc(F)cc(-c2ccc(C(=O)NS(=O)(=O)c3ccn[nH]3)c(N3CCC(C)C(C)C3)n2)c1 (centres unmarked) [Compound 528, 2-(3,4-dimethyl-1-piperidyl)-6-(3-fluoro-5-isobutoxy-phenyl)-N-(1H-pyrazol-5-ylsulfonyl)pyridine-3-carboxamide] | +++ (“+++” means <3 uM) | – | –
10 | CCOc1ccc(Nc2cccc(S(=O)(=O)NC(=O)c3cccnc3N3CC(C)CC3(C)C)n2)cc1 (centres unmarked) [Compound 2214, N—[[6-(4-ethoxyanilino)-2-pyridyl]sulfonyl]-2-(2,2,4-trimethylpyrrolidin-1-yl)pyridine-3-carboxamide] | – | < 3000 | –
11 | CC(C)COc1cc(F)cc(-c2ccc(C(=O)NS(=O)(=O)c3ccc[nH]c3=O)c(N3[C@H](C)CC[C@@H]3C)n2)c1 [Compound 307, 2-(2,5-dimethylpyrrolidin-1-yl)-6-(3-fluoro-5-isobutoxy-phenyl)-N-[(2-oxo-1H-pyridin-3-yl)sulfonyl]pyridine-3-carboxamide] | +++ (“+++” means <3 uM) | – | –
12 | CC(C)COc1cc(F)cc(-c2ccc(C(=O)NS(=O)(=O)N3CCC(N)C3)c(N3CCCC3c3ccccc3)n2)c1 (single isomer, unassigned) [Compound 2477] | – | < 3000 | –
13 | COc1c(F)cc(F)cc1-c1ccc(C(=O)NS(=O)(=O)c2ccc[nH]c2=O)c(N2C[C@@H](C)CC2(C)C)n1 [Compound 2496, 6-(3,5-difluoro-2-methoxy-phenyl)-N-[(2-oxo-1H-pyridin-3-yl)sulfonyl]-2-[(4S)-2,2,4-trimethylpyrrolidin-1-yl]pyridine-3-carboxamide] | – | < 3000 | –
14 | CC(C)COc1cc(F)cc(-c2ccc(C(=O)NS(=O)(=O)c3cccc(N)n3)c(N3CCC(C)C(C)C3)n2)c1 (single isomer, unassigned) [Compound 2532, N-[(6-amino-2-pyridyl)sulfonyl]-2-(3,4-dimethyl-1-piperidyl)-6-(3-fluoro-5-isobutoxy-phenyl)pyridine-3-carboxamide] | – | – | EC30 (F508del CFTR modulator activity, compounds of Table 1): +++ (“+++” means <3 uM)
15 | CCCC(C)Nc1cccc(S(=O)(=O)NC(=O)c2cccnc2N2CC(C)CC2(C)C)n1 (centres unmarked) [Compound 2197, N—[[6-(1-methylbutylamino)-2-pyridyl]sulfonyl]-2-(2,2,4-trimethylpyrrolidin-1-yl)pyridine-3-carboxamide] | – | < 3000 | –
16 | CC(C)COc1cc(F)cc(-c2ccc(C(=O)NS(=O)(=O)c3ccc[nH]c3=O)c(N3C[C@H](C)CC3(C)C)n2)c1 [Compound 605, 6-(3-fluoro-5-isobutoxy-phenyl)-N-[(2-oxo-1H-pyridin-3-yl)sulfonyl]-2-[(4R)-2,2,4-trimethylpyrrolidin-1-yl]pyridine-3-carboxamide] | +++ (“+++” means <3 uM) | – | –

Second part, led by results:

Row | EC30 [1] | EC30 [2] [nM] | SMILES | also measured
17 | +++ (“+++” means <3 uM) | – | Cc1cc(C)c(Oc2nc(C(C)(C)C)ccc2C(=O)NS(=O)(=O)c2cccc(O)c2)c(C)c1 [Compound 47, 6-tert-butyl-N-(3-hydroxyphenyl)sulfonyl-2-(2,4,6-trimethylphenoxy)pyridine-3-carboxamide] | –
18 | +++ (“+++” means <3 uM) | – | CC(C)(C)c1cc(C(=O)NS(=O)(=O)c2ccccc2)n(Cc2cc(C(F)(F)F)ccc2F)n1 [Compound 35, N-(benzenesulfonyl)-5-tert-butyl-2-[[2-fluoro-5-(trifluoromethyl)phenyl]methyl]pyrazole-3-carboxamide] | –
19 | ++ (“++” means between 3 uM and 10 uM) | – | Cc1cc(C)c(Oc2nc(C)ccc2C(=O)NS(=O)(=O)c2cccc(NC3CC3)n2)c(C)c1 [Compound 594, N-[[6-(cyclopropylamino)-2-pyridyl]sulfonyl]-6-methyl-2-(2,4,6-trimethylphenoxy)pyridine-3-carboxamide] | –
20 | +++ (“+++” means <3 uM) | – | Cc1cc(C)c(Cn2nc(-c3ccccc3)cc2C(=O)NS(=O)(=O)c2cccc(N)c2)c(C)c1 [Compound 366] | –
21 | – | < 3000 | CC1CN(c2ncccc2C(=O)NS(=O)(=O)c2cccc(Nc3cccc4ccccc34)n2)C(C)(C)C1 (centres unmarked) [Compound 2136, N—[[6-(1-naphthylamino)-2-pyridyl]sulfonyl]-2-(2,2,4-trimethylpyrrolidin-1-yl)pyridine-3-carboxamide] | –
22 | +++ (“+++” means <3 uM) | – | COc1ccccc1S(=O)(=O)NC(=O)c1cc2ccccc2n1Cc1c(C)cc(C)cc1C [Compound 183, N-(2-methoxyphenyl)sulfonyl-1-[(2,4,6-trimethylphenyl)methyl]indole-2-carboxamide] | –
23 | +++ (“+++” means <3 uM) | – | CC(C)c1ccccc1Oc1nc(C(C)(C)C)ccc1C(=O)NS(=O)(=O)c1ccccc1 [Compound 147, N-(benzenesulfonyl)-6-tert-butyl-2-(2-isopropylphenoxy)pyridine-3-carboxamide] | –
